Where two headings read alike, the source gives them in different places.
Legend:
Format in all cases: cell-based
[1] = test system: primary human total T-cells; experiment: T-cell activation assessed by cell proliferation (Cell Trace Violet)
Summary of the method: (§1)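 Primary human T-cells (>95% CD3+, negative selection from PBMC) were pre-incubated with inhibitor (e.g. 10, 1.11, 0.123 μM; DMSO <0.1%) for 1 h at 37 °C. They were then stimulated 48 h with plate-bound OKT3 (coated at 10 μg/mL), alone or with 5 μg/mL soluble anti-CD28. Results are fold change over uninhibited, identically stimulated cells.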

[2] = test system: primary human total T-cells; experiment: T-cell activation assessed by CD69 expression
Summary of the method: as §1

[3] = test system: primary human NK cells; experiment: NK cell activation assessed by cytokine secretion (coculture with K562 NucRed target cells); details: K562, NK cells cocultured with K562 NucRed, 1:1 E/T; for fold induction at 0.625 µM: 0.625 μM compound; for fold induction at 2.5 µM: 2.5 μM compound; for fold induction at 10 µM: 10 μM compound
Summary of the method: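 Read-out is cytokine secretion (IFNγ, TNFα, MIP1β; ELISA or Luminex) as fold over coculture without inhibitor, >2.0-fold taken as positive. Donor NK cells, IL-2 primed (60 ng/mL) overnight, received compound 1 h ahead (e.g. 0.1–10 μM, DMSO <0.1%) and were mixed 6 h with K562 NucRed targets at e.g. 5:1, 1:1, 1:5.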

[4] = test system: primary human total T-cells; experiment: T-cell activation assessed by cytokine secretion (GM-CSF, IFNγ, TNFα)
Summary of the method: as §1

[5] = CD3/CD28 stimulation, CD4 T-cells, read-out: % CP (cell proliferation) (CD4)
[6] = CD3/CD28 stimulation, CD8 T-cells, read-out: % CP (cell proliferation) (CD8)
[7] = CD3 alone stimulation, CD8 T-cells, read-out: % CP (cell proliferation) (CD8)
[8] = CD3/CD28 stimulation, CD4 T-cells, read-out: % CD69+ (CD4)
[9] = CD3/CD28 stimulation, CD8 T-cells, read-out: % CD69+ (CD8)
[10] = CD3 alone stimulation, CD4 T-cells, read-out: % CD69+ (CD4)
[11] = CD3 alone stimulation, CD8 T-cells, read-out: % CD69+ (CD8)
[12] = read-out: IFNγ secretion, fold change over baseline
[13] = read-out: TNFα secretion, fold change over baseline
[14] = CD3/CD28 stimulation, read-out: GM-CSF secretion
[15] = CD3/CD28 stimulation, read-out: IFNγ secretion
[16] = CD3/CD28 stimulation, read-out: TNFα secretion
[17] = CD3 alone stimulation, read-out: GM-CSF secretion
[18] = CD3 alone stimulation, read-out: IFNγ secretion
[19] = CD3 alone stimulation, read-out: TNFα secretion

| SMILES | fold induction at 1.11 µM [1, 5] | fold induction at 10 µM [1, 5] | fold induction at 1.11 µM [1, 6] | fold induction at 10 µM [1, 6] | fold induction at 1.11 µM [1, 7] | fold induction at 10 µM [1, 7] | fold induction at 1.11 µM [2, 8] | fold induction at 10 µM [2, 8] | fold induction at 1.11 µM [2, 9] | fold induction at 10 µM [2, 9] | fold induction at 1.11 µM [2, 10] | fold induction at 10 µM [2, 10] | fold induction at 1.11 µM [2, 11] | fold induction at 10 µM [2, 11] | fold induction at 0.625 µM [3, 12] | fold induction at 0.625 µM [3, 13] | fold induction at 2.5 µM [3, 12] | fold induction at 2.5 µM [3, 13] | fold induction at 10 µM [3, 12] | fold induction at 10 µM [3, 13] | also measured |
| --- | --- | --- | --- | --- | --- | --- | --- | --- | --- | --- | --- | --- | --- | --- | --- | --- | --- | --- | --- | --- | --- |
| C[C@H](Sc1nncn1C)c1cccc(NC(=O)c2cc(C(=O)N3CC[C@H](O)C3)ccn2)c1 [Compound 140, 4-[[(3S)-3-hydroxypyrrolidin-1-yl]carbonyl]-N-[3-[(1S)-1-[(4-methyl-4H-1,2,4-triazol-3-yl)sulfanyl]ethyl]phenyl]pyridine-2-carboxamide] | > 4 | > 4 | > 4 | > 4 | > 4 | > 4 | 1.4 to 1.6 | > 1.6 | 1.2 to 1.4 | 1.2 to 1.4 | > 1.6 | > 1.6 | 1.4 to 1.6 | 1.4 to 1.6 | < 1 | < 1 | < 1 | < 1 | 1.01 to 2 | < 1 | fold induction at 1.11 µM [4, 14]: 2.01 to 4; fold induction at 1.11 µM [4, 15]: 2.01 to 3; fold induction at 1.11 µM [4, 16]: 2.01 to 4; fold induction at 10 µM [4, 14]: > 4; fold induction at 10 µM [4, 15]: > 4; fold induction at 10 µM [4, 16]: 2.01 to 4; fold induction at 1.11 µM [4, 17]: 2.01 to 4; fold induction at 1.11 µM [4, 18]: 3.01 to 4; fold induction at 1.11 µM [4, 19]: 1.51 to 2; fold induction at 10 µM [4, 17]: 2.01 to 4; fold induction at 10 µM [4, 18]: > 4; fold induction at 10 µM [4, 19]: 2.01 to 4 |
| C[C@H](Cc1nncn1C)c1cccc(NC(=O)c2cccc(CCO)n2)c1 [Compound 202, 6-(2-hydroxyethyl)-N-[3-[(2R)-1-(4-methyl-4H-1,2,4-triazol-3-yl)propan-2-yl]phenyl]pyridine-2-carboxamide] | < 2 | 3.01 to 4 | < 2 | 2.01 to 3 | < 2 | < 2 | ≤ 1.2 | 1.2 to 1.4 | ≤ 1.2 | ≤ 1.2 | ≤ 1.2 | 1.2 to 1.4 | ≤ 1.2 | ≤ 1.2 | 1.01 to 2 | < 1 | 1.01 to 2 | 1.01 to 2 | 2.01 to 5 | 1.01 to 2 | fold induction at 1.11 µM [4, 14]: ≤ 1.5; fold induction at 1.11 µM [4, 15]: < 2; fold induction at 1.11 µM [4, 16]: ≤ 1.5; fold induction at 10 µM [4, 14]: 1.51 to 2; fold induction at 10 µM [4, 15]: > 4; fold induction at 10 µM [4, 16]: 1.51 to 2; fold induction at 1.11 µM [4, 17]: ≤ 1.5; fold induction at 1.11 µM [4, 18]: < 2; fold induction at 1.11 µM [4, 19]: ≤ 1.5; fold induction at 10 µM [4, 17]: 1.51 to 2; fold induction at 10 µM [4, 18]: < 2; fold induction at 10 µM [4, 19]: ≤ 1.5 |
| C[C@H](Cc1nncn1C)c1cccc(N2Cc3c(ccnc3C3CC3)C2=O)c1 [Compound 257, 4-cyclopropyl-2-[3-[(1R)-1-methyl-2-(4-methyl-1,2,4-triazol-3-yl)ethyl]phenyl]-3H-pyrrolo[3,4-c]pyridin-1-one] | 2.01 to 3 | > 4 | < 2 | 3.01 to 4 | < 2 | 3.01 to 4 | ≤ 1.2 | 1.4 to 1.6 | ≤ 1.2 | 1.2 to 1.4 | ≤ 1.2 | 1.2 to 1.4 | ≤ 1.2 | 1.2 to 1.4 | 1.01 to 2 | 1.01 to 2 | 2.01 to 5 | 1.01 to 2 | 2.01 to 5 | 2.01 to 5 | fold induction at 1.11 µM [4, 14]: 2.01 to 4; fold induction at 1.11 µM [4, 15]: < 2; fold induction at 1.11 µM [4, 16]: 1.51 to 2; fold induction at 10 µM [4, 14]: > 4; fold induction at 10 µM [4, 15]: 2.01 to 3; fold induction at 10 µM [4, 16]: 2.01 to 4; fold induction at 1.11 µM [4, 17]: 1.51 to 2; fold induction at 1.11 µM [4, 18]: < 2; fold induction at 1.11 µM [4, 19]: ≤ 1.5; fold induction at 10 µM [4, 17]: 2.01 to 4; fold induction at 10 µM [4, 18]: 2.01 to 3; fold induction at 10 µM [4, 19]: ≤ 1.5 |
| Cn1cnnc1[C@@H]1C[C@@H]1c1cccc(N2Cc3c(cccc3C(F)(F)F)C2=O)c1 [Compound 282, 2-(3-((1S,2R)-2-(4-methyl-4H-1,2,4-triazol-3-yl)cyclopropyl)phenyl)-4-(trifluoromethyl)isoindolin-1-one] | < 2 | > 4 | < 2 | 2.01 to 3 | < 2 | 3.01 to 4 | ≤ 1.2 | 1.2 to 1.4 | ≤ 1.2 | 1.2 to 1.4 | ≤ 1.2 | 1.2 to 1.4 | ≤ 1.2 | ≤ 1.2 | 1.01 to 2 | 1.01 to 2 | 1.01 to 2 | 1.01 to 2 | 2.01 to 5 | 2.01 to 5 | fold induction at 1.11 µM [4, 14]: 1.51 to 2; fold induction at 1.11 µM [4, 15]: < 2; fold induction at 1.11 µM [4, 16]: ≤ 1.5; fold induction at 10 µM [4, 14]: 2.01 to 4; fold induction at 10 µM [4, 15]: 2.01 to 3; fold induction at 10 µM [4, 16]: 2.01 to 4; fold induction at 1.11 µM [4, 17]: ≤ 1.5; fold induction at 1.11 µM [4, 18]: < 2; fold induction at 1.11 µM [4, 19]: ≤ 1.5; fold induction at 10 µM [4, 17]: 2.01 to 4; fold induction at 10 µM [4, 18]: 2.01 to 3; fold induction at 10 µM [4, 19]: ≤ 1.5 |
| C[C@H](Cc1nncn1C)c1cccc(NC(=O)c2nc(C(F)(F)F)c[nH]2)c1 [Compound 326, (R)-N-(3-(1-(4-methyl-4H-1,2,4-triazol-3-yl)propan-2-yl)phenyl)-4-(trifluoromethyl)-1H-imidazole-2-carboxamide] | 2.01 to 3 | > 4 | 2.01 to 3 | 3.01 to 4 | 2.01 to 3 | > 4 | 1.2 to 1.4 | 1.4 to 1.6 | ≤ 1.2 | 1.2 to 1.4 | 1.2 to 1.4 | 1.4 to 1.6 | ≤ 1.2 | 1.2 to 1.4 | 1.01 to 2 | 1.01 to 2 | 2.01 to 5 | 2.01 to 5 | 2.01 to 5 | 2.01 to 5 | fold induction at 1.11 µM [4, 14]: 1.51 to 2; fold induction at 1.11 µM [4, 15]: < 2; fold induction at 1.11 µM [4, 16]: ≤ 1.5; fold induction at 10 µM [4, 14]: 2.01 to 4; fold induction at 10 µM [4, 15]: 2.01 to 3; fold induction at 10 µM [4, 16]: 2.01 to 4; fold induction at 1.11 µM [4, 17]: 1.51 to 2; fold induction at 1.11 µM [4, 18]: < 2; fold induction at 1.11 µM [4, 19]: ≤ 1.5; fold induction at 10 µM [4, 17]: 2.01 to 4; fold induction at 10 µM [4, 18]: 2.01 to 3; fold induction at 10 µM [4, 19]: 1.51 to 2 |
